Common to all, as to type: cell-based
In one assay the target is T1, M4 muscarinic receptor (Homo sapiens, UniProt P08173).
T1 construct: expressed in transfected cells; host or cells: CHO (M4-CHO)
T1 sequence (P08173 1-479): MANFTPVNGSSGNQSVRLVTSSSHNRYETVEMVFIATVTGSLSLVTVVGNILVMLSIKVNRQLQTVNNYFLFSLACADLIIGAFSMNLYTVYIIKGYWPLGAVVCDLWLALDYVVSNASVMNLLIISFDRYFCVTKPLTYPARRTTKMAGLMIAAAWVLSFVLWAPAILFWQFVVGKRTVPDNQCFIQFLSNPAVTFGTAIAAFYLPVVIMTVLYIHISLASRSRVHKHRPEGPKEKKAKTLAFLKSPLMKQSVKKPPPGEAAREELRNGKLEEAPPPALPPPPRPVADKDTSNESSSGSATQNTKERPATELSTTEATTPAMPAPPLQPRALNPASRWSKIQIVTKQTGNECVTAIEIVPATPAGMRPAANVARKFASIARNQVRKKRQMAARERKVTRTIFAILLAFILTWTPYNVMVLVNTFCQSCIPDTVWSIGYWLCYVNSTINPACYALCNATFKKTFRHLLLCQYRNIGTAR
In words: Functional mobilization of intracellular calcium (FLIPR), M4-CHO cells. The note with it: for Emax: 100% efficacy = maximum response obtained with the Carbachol control; for M4 Activity: M4-CHO cells, calcium mobilization (FLIPR). The method in brief:
(§1)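 CHO cells expressing human M1–M4 receptors loaded with Fluo-3 AM or Calcium 3 dye (1 mM probenecid, pH 7.4); 0.5% DMSO final. Agonist mode: compound added directly; antagonist mode: 15 min pre-incubation or co-application, then carbachol at EC80. Fluorescence read 60 s on FLIPR; efficacy relative to carbachol maximum.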

For another assay, the target named is T2, M2 muscarinic receptor (Homo sapiens, UniProt P08172).
T2 construct: expressed in transfected cells; host or cells: CHO (M2-CHO)
T2 sequence (P08172 1-466): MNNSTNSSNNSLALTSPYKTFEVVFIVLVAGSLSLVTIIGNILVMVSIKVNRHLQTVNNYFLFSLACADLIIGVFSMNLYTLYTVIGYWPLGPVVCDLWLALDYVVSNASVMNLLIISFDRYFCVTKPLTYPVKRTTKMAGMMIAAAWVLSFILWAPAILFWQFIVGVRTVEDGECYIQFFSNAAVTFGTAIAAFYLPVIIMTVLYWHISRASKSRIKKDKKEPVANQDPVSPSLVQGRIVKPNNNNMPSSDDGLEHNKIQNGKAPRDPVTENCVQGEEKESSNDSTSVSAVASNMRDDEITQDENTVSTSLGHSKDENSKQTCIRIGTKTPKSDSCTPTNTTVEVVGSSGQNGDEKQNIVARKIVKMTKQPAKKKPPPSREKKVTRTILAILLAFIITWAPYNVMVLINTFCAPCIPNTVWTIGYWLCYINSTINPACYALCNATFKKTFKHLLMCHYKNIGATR
In words: Functional mobilization of intracellular calcium (FLIPR), M2-CHO cells. The settings on record: for Emax: 100% efficacy = maximum response obtained with the Carbachol control; for M2 Activity: M2-CHO cells, calcium mobilization (FLIPR). The method in brief: as §1

Another assay has as its target T3, M1 muscarinic receptor (Homo sapiens, UniProt P11229).
T3 construct: expressed in transfected cells; host or cells: CHO (M1-CHO)
T3 sequence (P11229 1-460): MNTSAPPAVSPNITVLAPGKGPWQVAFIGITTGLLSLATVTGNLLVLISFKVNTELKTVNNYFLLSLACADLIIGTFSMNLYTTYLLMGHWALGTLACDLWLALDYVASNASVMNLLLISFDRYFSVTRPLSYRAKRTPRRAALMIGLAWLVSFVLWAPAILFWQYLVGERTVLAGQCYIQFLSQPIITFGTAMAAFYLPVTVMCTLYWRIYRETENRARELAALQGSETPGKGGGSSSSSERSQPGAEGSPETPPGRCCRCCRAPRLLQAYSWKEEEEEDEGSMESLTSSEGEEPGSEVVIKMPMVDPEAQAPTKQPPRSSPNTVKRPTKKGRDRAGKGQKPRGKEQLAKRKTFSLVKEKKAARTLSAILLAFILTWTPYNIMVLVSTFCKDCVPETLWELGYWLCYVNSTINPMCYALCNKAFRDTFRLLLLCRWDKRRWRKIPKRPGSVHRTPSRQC
In words: Functional mobilization of intracellular calcium (FLIPR), M1-CHO cells. The note with it: for Emax: 100% efficacy = maximum response obtained with the Carbachol control; for M1 Activity: M1-CHO cells, calcium mobilization (FLIPR). Summed up:
as §1

The target of another assay is T4, M3 muscarinic receptor (Homo sapiens, UniProt P20309).
T4 construct: expressed in transfected cells; host or cells: CHO (M3-CHO)
In words: Functional mobilization of intracellular calcium (FLIPR), M3-CHO cells. The settings on record: for Emax: 100% efficacy = maximum response obtained with the Carbachol control; for M3 Activity: M3-CHO cells, calcium mobilization (FLIPR). Summed up:
as §1

Molecules are shown by their SMILES.

T4 sequence (P20309 whole entry): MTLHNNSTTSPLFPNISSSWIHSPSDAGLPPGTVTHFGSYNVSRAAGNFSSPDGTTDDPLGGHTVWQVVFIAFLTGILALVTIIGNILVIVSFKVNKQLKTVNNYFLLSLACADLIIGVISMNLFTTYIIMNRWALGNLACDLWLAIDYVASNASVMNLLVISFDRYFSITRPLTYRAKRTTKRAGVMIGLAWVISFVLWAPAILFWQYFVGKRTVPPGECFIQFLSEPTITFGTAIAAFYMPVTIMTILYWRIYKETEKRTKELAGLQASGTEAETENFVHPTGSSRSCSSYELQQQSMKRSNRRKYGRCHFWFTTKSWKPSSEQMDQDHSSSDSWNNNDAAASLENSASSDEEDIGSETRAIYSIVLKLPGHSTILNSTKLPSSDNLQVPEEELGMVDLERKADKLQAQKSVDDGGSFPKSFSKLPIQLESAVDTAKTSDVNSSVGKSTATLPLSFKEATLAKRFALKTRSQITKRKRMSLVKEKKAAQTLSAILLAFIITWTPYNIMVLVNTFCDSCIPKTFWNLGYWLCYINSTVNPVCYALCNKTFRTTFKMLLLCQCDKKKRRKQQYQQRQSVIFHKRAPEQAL

As for `Cc1c(C2CCN(C3C[C@H]4CC[C@H]3C4)CC2)cccc1C(F)(F)F` (stereo partly drawn) [Compound 149], on M4 muscarinic receptor, the Emax fell in the range of 25 to 100% and the “M4 Activity” value is recorded as “+ (activity was measured to be greater than 5.0 μM)”. On M2 muscarinic receptor, the Emax is < 25% and the “M2 Activity” value is reported as “+ (activity was measured to be greater than 5.0 μM)”. Besides, at M1 muscarinic receptor, the Emax fell in the range of 25 to 100% and the “M1 Activity” value is “+ (activity was measured to be greater than 5.0 μM)”. On M3 muscarinic receptor, the Emax is < 25% and the “M3 Activity” value is listed as “+ (activity was measured to be greater than 5.0 μM)”.
Regarding `COc1ccc(F)cc1C1(OC)CCN(CC2CCOCC2)CC1` [Compound 150], on M4 muscarinic receptor, the Emax fell in the range of 25 to 100% and the “M4 Activity” value is “+ (activity was measured to be greater than 5.0 μM)”. At M2 muscarinic receptor, the Emax was < 25% and the “M2 Activity” value is listed as “+ (activity was measured to be greater than 5.0 μM)”. For the same compound, on M1 muscarinic receptor, the Emax lay within 25 to 100% and the “M1 Activity” value was “+ (activity was measured to be greater than 5.0 μM)”. For the same compound, at M3 muscarinic receptor, the Emax is < 25% and the “M3 Activity” value is given as “+ (activity was measured to be greater than 5.0 μM)”.
Turning to `COc1ccccc1C1CCN(C2CCC(C(C)(C)C)CC2)CC1` (stereo not drawn) [Compound 152], on M4 muscarinic receptor, the Emax was < 25% and the “M4 Activity” value was “+ (activity was measured to be greater than 5.0 μM)”. Moreover, at M2 muscarinic receptor, the Emax was < 25% and the “M2 Activity” value is on record as “+ (activity was measured to be greater than 5.0 μM)”. Besides, on M1 muscarinic receptor, the Emax was < 25% and the “M1 Activity” value is on record as “+ (activity was measured to be greater than 5.0 μM)”. On M3 muscarinic receptor, the Emax is < 25% and the “M3 Activity” value was “+ (activity was measured to be greater than 5.0 μM)”.
In the case of `COc1ccccc1[C@@H]1CCN([C@@H]2C[C@H]3CC[C@H]2C3)C[C@H]1O` [Compound 154], on M4 muscarinic receptor, the Emax lay within 25 to 100% and the “M4 Activity” value is on record as “+ (activity was measured to be greater than 5.0 μM)”. In addition, at M2 muscarinic receptor, the Emax was < 25% and the “M2 Activity” value is reported as “+ (activity was measured to be greater than 5.0 μM)”. At M1 muscarinic receptor, the Emax is < 25% and the “M1 Activity” value is given as “+ (activity was measured to be greater than 5.0 μM)”. At M3 muscarinic receptor, the Emax was < 25% and the “M3 Activity” value is given as “+ (activity was measured to be greater than 5.0 μM)”.
`COc1ccccc1C1CCN(C2CCC(C(C)C)CC2)CC1` (stereo not drawn) [Compound 155]: on M4 muscarinic receptor, the Emax is < 25% and the “M4 Activity” value is listed as “+ (activity was measured to be greater than 5.0 μM)”. Also, at M2 muscarinic receptor, the Emax was < 25% and the “M2 Activity” value is given as “+ (activity was measured to be greater than 5.0 μM)”. On M1 muscarinic receptor, the Emax is < 25% and the “M1 Activity” value is recorded as “+ (activity was measured to be greater than 5.0 μM)”. For the same compound, at M3 muscarinic receptor, the Emax is < 25% and the “M3 Activity” value is reported as “+ (activity was measured to be greater than 5.0 μM)”.
As to `COc1ccccc1C1CCN(C2CCC(C)CC2)CC1` (stereo not drawn) [Compound 158], at M4 muscarinic receptor, the Emax is 25 to 100% and the “M4 Activity” value was “+++ (activity was measured to be less than 1.0 μM)”. Moreover, at M2 muscarinic receptor, the Emax is < 25% and the “M2 Activity” value is reported as “+ (activity was measured to be greater than 5.0 μM)”. Also, at M1 muscarinic receptor, the Emax was in the range of 25 to 100% and the “M1 Activity” value is “+ (activity was measured to be greater than 5.0 μM)”. Moreover, on M3 muscarinic receptor, the Emax is < 25% and the “M3 Activity” value is on record as “+ (activity was measured to be greater than 5.0 μM)”.
For `COc1ccc(F)cc1C1(OC)CCN(C[C@@H]2C[C@H]3C=C[C@H]2C3)CC1` [Compound 160], at M4 muscarinic receptor, the Emax was 25 to 100% and the “M4 Activity” value is listed as “+++ (activity was measured to be less than 1.0 μM)”. For the same compound, on M2 muscarinic receptor, the Emax was < 25% and the “M2 Activity” value is on record as “+ (activity was measured to be greater than 5.0 μM)”. Moreover, at M1 muscarinic receptor, the Emax was in the range of 25 to 100% and the “M1 Activity” value is “+ (activity was measured to be greater than 5.0 μM)”. Besides, on M3 muscarinic receptor, the Emax is < 25% and the “M3 Activity” value is on record as “+ (activity was measured to be greater than 5.0 μM)”.
For the compound `COc1ccc(Cl)cc1C1(F)CCN(C2CCCCCC2)CC1` [Compound 161], at M4 muscarinic receptor, the Emax was 25 to 100% and the “M4 Activity” value was “+ (activity was measured to be greater than 5.0 μM)”. Further, on M2 muscarinic receptor, the Emax fell in the range of 25 to 100% and the “M2 Activity” value is on record as “+ (activity was measured to be greater than 5.0 μM)”. At M1 muscarinic receptor, the Emax was 25 to 100% and the “M1 Activity” value is recorded as “+ (activity was measured to be greater than 5.0 μM)”. Besides, at M3 muscarinic receptor, the Emax is < 25% and the “M3 Activity” value is on record as “+ (activity was measured to be greater than 5.0 μM)”.
With `COc1ccc(F)cc1C1CCN(CC2CCOCC2)CC1` [Compound 163], on M4 muscarinic receptor, the Emax lay within 25 to 100% and the “M4 Activity” value was “+++ (activity was measured to be less than 1.0 μM)”. For the same compound, at M2 muscarinic receptor, the Emax is < 25% and the “M2 Activity” value is “+ (activity was measured to be greater than 5.0 μM)”. Also, on M1 muscarinic receptor, the Emax was 25 to 100% and the “M1 Activity” value is reported as “+ (activity was measured to be greater than 5.0 μM)”. Further, at M3 muscarinic receptor, the Emax was < 25% and the “M3 Activity” value is “+ (activity was measured to be greater than 5.0 μM)”.
`COc1c(F)cc(F)cc1C1CCN([C@H]2C[C@H]3CC[C@H]2C3)CC1` [Compound 165]: on M4 muscarinic receptor, the Emax fell in the range of 25 to 100% and the “M4 Activity” value is listed as “++ (activity was measured to be from 1.0 μM to 5.0 μM)”. On M2 muscarinic receptor, the Emax is < 25% and the “M2 Activity” value was “+ (activity was measured to be greater than 5.0 μM)”. Also, at M1 muscarinic receptor, the Emax lay within 25 to 100% and the “M1 Activity” value is reported as “+ (activity was measured to be greater than 5.0 μM)”. Besides, on M3 muscarinic receptor, the Emax was < 25% and the “M3 Activity” value is on record as “+ (activity was measured to be greater than 5.0 μM)”.
On to `COc1ccc(F)cc1C1CCN(C[C@@H]2C[C@H]3C=C[C@H]2C3)CC1` [Compound 167], for which, at M4 muscarinic receptor, the Emax was 25 to 100% and the “M4 Activity” value was “+++ (activity was measured to be less than 1.0 μM)”. At M2 muscarinic receptor, the Emax is < 25% and the “M2 Activity” value is “+ (activity was measured to be greater than 5.0 μM)”. Moreover, on M1 muscarinic receptor, the Emax lay within 25 to 100% and the “M1 Activity” value is reported as “++ (activity was measured to be from 1.0 μM to 5.0 μM)”. In addition, on M3 muscarinic receptor, the Emax is < 25% and the “M3 Activity” value is recorded as “+ (activity was measured to be greater than 5.0 μM)”.
As for `COc1ccc(-c2ccccc2)cc1C1CCN([C@H]2C[C@H]3CC[C@H]2C3)CC1` [Compound 168], at M4 muscarinic receptor, the Emax lay within 25 to 100% and the “M4 Activity” value was “+ (activity was measured to be greater than 5.0 μM)”. At M2 muscarinic receptor, the Emax is < 25% and the “M2 Activity” value is reported as “+ (activity was measured to be greater than 5.0 μM)”. In addition, at M1 muscarinic receptor, the Emax is < 25% and the “M1 Activity” value is “+ (activity was measured to be greater than 5.0 μM)”. Besides, on M3 muscarinic receptor, the Emax is < 25% and the “M3 Activity” value is recorded as “+ (activity was measured to be greater than 5.0 μM)”.

The values are drawn from patent US7880007B2, “Bicyclic substituted phenyl piperidine modulators of muscarinic receptors” (Vertex Pharmaceuticals Incorporated, priority 2004, dated 2011).
